Blank lines part the entries; values can stand above or below the compound they belong to.
Key:
[1] = system: reporter under NFAT control in JNL cells; test: Dimerization molecule dose response, single vector construct 143775 in JNL cells, CD19 target; type: cell-based; conditions: nM to sub-nM doses
Description: The constructs and viral particles were made and tested essentially as described in Example 11. Viral particles were introduced into JNL cells and evaluated for activity essentially as described in Example 1 except that the target was CD19 (as opposed to EGFRviii).
Construct 143775 was introduced into cells and the affect of dimerization molecule concentration on activation evaluated essentially as described in Example 14.

[2] = molecular target: biotinylated FKBP in the presence of everolimus; test: FRB direct binding assay (AlphaLISA); conditions: 30 nM biotinylated FKBP and FLAG FRB protein; everolimus serial diluted from 600 nM
Chain of biotinylated FKBP in the presence of everolimus (P62942 2-108 limits assumed): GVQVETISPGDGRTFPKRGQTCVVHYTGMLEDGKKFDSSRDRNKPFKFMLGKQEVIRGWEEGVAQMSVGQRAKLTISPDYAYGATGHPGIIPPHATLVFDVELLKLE
Method: FRB mutations were also ranked in an alternative assay format. […] All dilutions were made in 1× AlphaLISA Immunoassay buffer (PerkinElmer). Anti-Flag acceptor beads (PerkinElmer) were added at 10 ug/ml final concentration and incubated for one hour at room temperature. Streptavidin donor beads (PerkinElmer), were then added at a final concentration of 40 ug/ml and the plate was protected from light and incubated for 30 minutes at room temperature. The plate was then read on the PerkinElmer EnVision Multiplate reader equipped with the Alpha Module using excitation of 680 nm and a 570 nm Emission filter.

[3] = system: NFAT activation in Jurkat cells with NFAT-LUC reporter (JNL); test: Jurkat NFAT-LUC assay, peptide tag (myc/Flag) dimerization switch; type: cell-based
Method: The non-regulatable CAR construct, 139scFv-BBZ, SEQ ID: 7, will be used as a control. Jurkat cells with NFAT-LUC reporter (JNL) were grown to the density of 0.5×10^6/ml in Jurkat cell growth media with puromycin at 0.5 μg/ml. For each transfection 2.5×10^6 cells were spun down at 100 g for 10 minutes. Two μg of DNA per construct was used per transfection. Amaxa Nucleofector solution V and supplement I were mixed and 100 μl was added into the tube with DNA construct. The mixture was then added to the cells and transferred to the electroporation cuvette. Electroporation was done under setting X-001 using Amaxa Nucleofector II Device. 0.5 ml of growth media was added immediately after eletroporation and the mixture were transferred into 2 ml growth media in one well of the 6-well plate. The cells were incubated in the 37° C. incubator with 5% CO2 overnight. Rabbit polyclonal antibody against myc tag was added to the cells which were transfected with RCAR construct with myc tag as the extracellular domain. The concentration of the polyclonal antibody was at 100 nM. One and half hour later, 100 nM of anti rabbit antibody was added in order to enhance cluster formation. The cell mixture was incubated at 37° C. for 18 hrs. Luciferase One Glo reagent 100 μl was added per well. The samples were incubated for 5 min at 37° C. and then luminescence was measured using a luminometer.
Similarly, a construct with Flag peptide tag as the extracellular domain was used to transfect reporter cells. Rabbit polyclonal antibody against Flag peptide tag was used at 100 nM; and to facilitate further clustering, an antibody against the rabbit polyclonal antibody was used at 100 nM. In addition, a construct with scFv 139 as the extracellular domain was used to transfect reporter cells, and EGFRvIII-Fc at 100 nM was used, and one and half hour later anti-Fc antibody was used.

[4] = system: NFAT activation in Jurkat cells with NFAT-LUC reporter (JNL), PDL1-Fc target; test: Activation assay of redirected inhibitory PD1 CAR / PD1 RCAR; type: cell-based
Method: Jurkat cells with NFAT-LUC reporter (JNL) were grown to the density of 0.5×10^6/ml in Jurkat cell growth media with puromycin at 0.5 μg/ml. For each transfection 3×10^6 cells were spin down at 100 g for 10 minutes. Four μg DNA per construct were used per transfection. Amaxa Nucleofector solution V and supplement I was mixed and 100 μl was added into the tube with DNA construct. The mixture was then added to the cells and transferred to the electroporation cuvette. Electroporation was done under setting X-001 using Amaxa Nucleofector II Device. 0.5 ml of growth media was added immediately after eletroporation and the mixture were transferred into 2 ml growth media in one well of the 6-well plate. After two hours, the rapalogue compound at various concentrations was added to cells. The cells were applied to tissue culture plate wells that were coated by the target. Tissue culture plate was coated with 5 μg/ml of PDL1-Fc or IgG1-Fc or any target for 2 hrs at 37° C., then blocked with the blocking buffer (DPBS with 5% serum) for 30 minutes. The transfected cells were added to the target plate with 100 μl per well and incubated further for 16 hrs. Luciferase One Glo reagent 100 μl was added per well. The samples were incubated for 5 min at 37° C. and then luminescence is measured using Envision plate reader. […]

[5] = system: NFAT activation in Jurkat cells with NFAT-LUC reporter (JNL); test: Jurkat NFAT-LUC reporter assay, EGFRvIII RCAR with intracellular FKBP/FRB switch; type: cell-based
Method: Jurkat cells with NFAT-LUC reporter (JNL) were grown to the density of 0.5×10^6/ml in Jurkat cell growth media with puromycin at 0.5 μg/ml. For each transfection 2.5×10^6 cells were spin down at 100 g for 10 minutes. Two μg of DNA per construct were used per transfection. Amaxa Nucleofector solution V and supplement I was mixed and 100 μl was added into the tube with DNA construct. The mixture was then added to the cells and transferred to the electroporation cuvette. Electroporation was done under setting X-001 using Amaxa Nucleofector II Device. 0.5 ml of growth media was added immediately after eletroporation and the mixture were transferred into 2 ml growth media in one well of the 6-well plate. After one hour, A/Z compound was applied at the final concentration of 500 nM. The cells were incubated in the 37° C. incubator with 5% CO2 overnight for 18 hrs. Tissue culture plate was coated with 5 μg/ml of EGFRvIII-Fc or IgG1-Fc for 2 hrs, blocked with the blocking buffer (DPBS with 5% serum) for 1 hour. The transfected cells with or without A/Z compound were resuspended and added to the target plate with 100 μl per well and incubated for 18 hrs. Luciferase One Glo reagent 100 μl was added per well. The samples were incubated for 5 min at 37° C. and then luminescence is measured using a luminometer.
Specifically, JNL were grown to the density of 0.5×10^6/ml in Jurkat cell growth media with puromycin at 0.5 μg/ml. For each transfection 2.5×10^6 cells were spin down at 100 g for 10 minutes. Two μg of DNA per construct were used per transfection. Amaxa Nucleofector solution V and supplement I was mixed and 100 μl was added into the tube with DNA construct. […] The samples were incubated for 5 min at 37° C. and then luminescence is measured using a luminometer.
To determine the dose response, rapaloque (“A/C heterodimerizer” AP21967), at various concentrations, was applied to the transfected cells that were cotransfected with EGFRvIII clone 139-CD8alphaTM-FKBP (SEQ ID NO: 5, construct 66) and FRB-4-1BB-CD3zeta (SEQ ID NO: 6, construct 67) and NFAT activation was measured. […]

[6] = system: NFAT activation in Jurkat cells with NFAT-LUC reporter (JNL); test: Jurkat NFAT-LUC assay, EGFRvIII RCAR with extracellular FKBP/FRB switch; type: cell-based; conditions: 250 nM, external switch
Method: In this example, the switch is designed by fusing a leader sequence to the 139 scFv followed by linker and the first switch domain—FKBP, a hinge region and a transmembrane region (SEQ ID NO: 31). The second construct is designed by fusing a leader sequence to the FRB switch domain, a transmembrane region and the intracellular signaling domains 4-1BB followed by CD3zeta (SEQ ID NO: 32). The extracellular switch transfections and activations were carried out essentially as described for the intacellular switches in Example 1.

Compound: CO[C@H]1C[C@@H]2CC[C@@H](C)[C@@](O)(O2)C(=O)C(=O)N2CCCC[C@H]2C(=O)O[C@H]([C@H](C)C[C@@H]2CC[C@@H](O)[C@H](OC)C2)CC(=O)[C@H](C)/C=C(\C)[C@@H](O)[C@@H](OC)C(=O)[C@H](C)C[C@H](C)/C=C/C=C/C=C/1C [rapamycin]
activation [1]: effective at a broad range of concentrations

Compound: RCAR with Flag tag: flag peptide tag fused to linker, 4-1BB and CD3zeta, SEQ ID NO: 20
activation ([3]; rabbit polyclonal anti-Flag antibody and anti-rabbit antibody, 100 nM each): only showed activation when both crosslinking reagents were added

Compound: RCAR with c-myc peptide tag: c-myc peptide tag fused to linker, 4-1BB and CD3zeta, SEQ ID NO: 21
activation after addition of anti rabbit antibody ([3]; anti-myc antibody 100 nM plus anti rabbit antibody 100 nM): further enhanced
NFAT activity ([3]; rabbit polyclonal anti-myc antibody 100 nM, compared to other antibodies): higher NFAT activity

Compound: CO[C@H]1[C@@H](O)[C@H](C)C[C@H](C)/C=C/C=C/C=C(\C)[C@@H](c2c[nH]c3c(C)cccc23)C[C@@H]2CC[C@@H](C)[C@@](O)(O2)C(=O)C(=O)N2CCCC[C@H]2C(=O)O[C@H]([C@H](C)CC2CC[C@@H](O)[C@H](OC)C2)C[C@H](O)[C@H](C)/C=C(\C)[C@H]1O (some centres unmarked) [AP21967]
induction of signaling by PDL-1 target ([4]; 500 nM AP21967, PD1 RCAR (PD1-ECD-TM-FRB and FKBP-41BB-CD3 zeta)): significant induction of signaling
dose response, activation of NFAT signaling ([4]; varying concentrations, PD1 RCAR, FIG. 18): potent even at sub nM concentration
fold of induction of NFAT mediated by the target ([5]; 0.8 nM rapalogue, constructs 66 and 67): 2-3 fold
fold activation of NFAT ([5]; 500 nM to as low as 20 nM, constructs 66 and 67, FIG. 12B): remained relatively constant
target regulated activation ([5]; 500 nM, EGFRvIII-Fc target, FIG. 12A): significant target regulated activation
target regulated activation [6]: significant target regulated activation

Compound: E2032I: FRB point mutant; His-FRB SEQ ID NO: 207, His-FLAG-FRB SEQ ID NO: 213
EC50 [2]: 2.46 nM

The remaining lines, values ahead:

EC50 [2]: 2.15 nM
Compound: E2032L: FRB point mutant; His-FRB SEQ ID NO: 208, His-FLAG-FRB SEQ ID NO: 214

EC50 [2]: 1.44 nM
Compound: T2098L: FRB point mutant; His-FRB SEQ ID NO: 209, His-FLAG-FRB SEQ ID NO: 215

EC50 [2]: 3.9 nM
Compound: Wild type FRB: wild-type FRB; His-FRB SEQ ID NO: 206 (competition), His-FLAG-FRB SEQ ID NO: 212 (direct binding)

— US20210087279A1, “REGULATABLE CHIMERIC ANTIGEN RECEPTOR” (Novartis AG, priority 2014, published 2021)
